From ChEMBL document CHEMBL1136154, “Anti-atherogenic effects of 3,4-Dihydroxy hydrocinnamides” (Bioorg Med Chem Lett, 2003) come the findings set out here.

What all share (assay type): functional, organism-based
For test [1], the species on record is Oryctolagus cuniculus. Put plainly: (§1) Total cholesterol-fed rabbit.
The species entered for test [2] is Oryctolagus cuniculus. Put plainly: (§2) HDL-cholesterol-fed rabbit.
For test [3], the species on record is Oryctolagus cuniculus. Briefly: Triglyceride after 0 week of cholesterol-fed rabbit.
The species entered for test [4] is Oryctolagus cuniculus. Described as §2. The source holds these as a separate data set.
Test [5] is filed under the species Oryctolagus cuniculus. Put plainly: Triglyceride after 8 weeks of cholesterol-fed rabbit.
For test [6], the species on record is Oryctolagus cuniculus. The test is described as §1. This is another data set of the same source.

As for `COC(=O)C(Cc1c[nH]c2ccccc12)NC(=O)CCc1ccc(O)c(O)c1` (configuration not stated), the Plasma lipids turned out to be 50 mg/dL in the test listed under Oryctolagus cuniculus [1]; 98 mg/dL in the test filed under Oryctolagus cuniculus [2]; 43 mg/dL in the test filed under Oryctolagus cuniculus [3]; 32 mg/dL in the test listed under Oryctolagus cuniculus [4]; 104 mg/dL in the test filed under Oryctolagus cuniculus [5]; 1070 mg/dL in the test listed under Oryctolagus cuniculus [6].
Turning to `COC(=O)C(C)NC(=O)CCc1ccc(O)c(O)c1` (configuration not stated), the Plasma lipids in the test filed under Oryctolagus cuniculus [1] is 53 mg/dL; in the test listed under Oryctolagus cuniculus [2] it was 81 mg/dL; in the test listed under Oryctolagus cuniculus [3], 53 mg/dL; in the test filed under Oryctolagus cuniculus [4], 37 mg/dL; in the test filed under Oryctolagus cuniculus [5], 116 mg/dL; in the test filed under Oryctolagus cuniculus [6], 1080 mg/dL.
